Results reported in US10550105B2 (Ribon Therapeutics Inc., priority 2018, dated 2020).

What was measured:
[1] = test system: CT26 colon cancer syngeneic model; test: Inhibition of tumor growth by oral dosing, murine CT26 colon cancer syngeneic model; format: in vivo; details: CT26 in BALB/c mice; BID 125-500 mg/kg or QD 500 mg/kg for 21 days; vs vehicle, P<0.0001 (FIG. 7B)
From the text: Example H: Inhibition of Tumor Growth by Oral Dosing with a PARP7 Inhibitor
The effect of Compound 561 on tumor growth was studied in a human NCI-H1373 lung cancer xenograft and a murine CT26 colon cancer syngeneic model.
For the CT26 study, BALB/c mice were inoculated subcutaneously in the right flank with CT26 cells for tumor development. After 5 days of cell inoculation, mice with 36-79 mm^3 tumors were randomized into treatment groups with mean tumor volumes of 54 mm^3. The treatments were started from the next day post randomization (defined randomization day as day 0) and were treated with vehicle (25 or 50% Labrasol) or Compound 561 BID (2 times a day every 12 hours) at doses ranging from 125-500 mg/kg or QD (once a day) at 500 mg/kg for 21 days by oral gavage or needle subcutaneously. Tumor volumes were determined by manual calipers every 2-3 days. Mean tumor volume and SEM are plotted. BID: twice a day; PO: per oral administration; QD: once a day; SC: per subcutaneous administration. The first two doses for vehicle and Compound 561 500 mg/kg in the QD groups were delivered by subcutaneous injection. […] Statistical significance is calculated using two-way ANOVA followed by Bonferroni post-tests in which the treatment groups were compared to vehicle control (**** P<0.0001).

[2] = test system: CT26 colon cancer syngeneic model; test: Tumor growth in the murine syngeneic model CT26 (FIG. 6A-C, 7B); format: in vivo, mouse; details: once or twice daily administration, FIG. 7B

`C[C@@H](COCCC(=O)N1CCN(c2ncc(C(F)(F)F)cn2)CC1)Nc1cn[nH]c(=O)c1C(F)(F)F` [Example 561, 5-[[(2S)-1-(3-oxo-3-[4-[5-(trifluoromethyl)pyrimidin-2-yl]piperazin-1-yl]propoxy)propan-2-yl]amino]-4-(trifluoromethyl)-2,3-dihydropyridazin-3-one] was tested, and the tumor growth [1] was “significantly reduces tumor growth” and the tumor growth [2] was “significantly reduces tumor growth”.
